Experimental data reported in US20200291018A1, “TAM KINASE INHIBITORS” (SYROS PHARMACEUTICALS, INC., priority 2017, published 2020).

What was measured:
FLT3 = target: T1, FLT3 (Homo sapiens, UniProt P36888); assay: TR-FRET kinase activity assay, FLT3; assay type: biochemical; details: ATP at Km, 60 minutes
T1 sequence (P36888 27-993): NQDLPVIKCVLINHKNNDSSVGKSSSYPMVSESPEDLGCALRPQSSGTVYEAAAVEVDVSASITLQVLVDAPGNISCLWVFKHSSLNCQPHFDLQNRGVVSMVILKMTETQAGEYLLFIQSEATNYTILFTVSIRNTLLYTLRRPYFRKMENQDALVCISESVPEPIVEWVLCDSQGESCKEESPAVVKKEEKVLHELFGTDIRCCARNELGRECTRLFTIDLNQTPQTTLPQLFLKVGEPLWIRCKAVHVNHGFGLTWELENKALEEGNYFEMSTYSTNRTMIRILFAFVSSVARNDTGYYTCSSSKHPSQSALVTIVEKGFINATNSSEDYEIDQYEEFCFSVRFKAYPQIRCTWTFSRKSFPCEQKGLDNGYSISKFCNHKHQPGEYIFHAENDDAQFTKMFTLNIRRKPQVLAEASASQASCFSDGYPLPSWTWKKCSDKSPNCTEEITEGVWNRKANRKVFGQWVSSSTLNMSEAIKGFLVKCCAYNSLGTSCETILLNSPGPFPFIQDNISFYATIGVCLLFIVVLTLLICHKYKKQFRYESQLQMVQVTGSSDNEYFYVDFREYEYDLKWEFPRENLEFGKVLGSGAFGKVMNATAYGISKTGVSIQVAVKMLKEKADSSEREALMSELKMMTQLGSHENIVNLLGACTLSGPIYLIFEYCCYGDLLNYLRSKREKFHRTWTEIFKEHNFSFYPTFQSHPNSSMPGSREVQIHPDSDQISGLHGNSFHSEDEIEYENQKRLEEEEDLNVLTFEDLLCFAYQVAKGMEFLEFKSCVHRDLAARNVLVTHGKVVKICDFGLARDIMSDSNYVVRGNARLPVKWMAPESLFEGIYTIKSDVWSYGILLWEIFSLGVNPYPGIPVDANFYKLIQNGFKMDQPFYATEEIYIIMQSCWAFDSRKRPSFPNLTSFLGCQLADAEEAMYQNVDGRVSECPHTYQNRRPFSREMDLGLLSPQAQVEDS
Method in brief: (§1)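 IC50 came from TR-FRET signal after 30 min dark development with a Europium-labeled phospho-specific antibody. This followed a 60 min RT reaction, stopped with EDTA, started with ATP at Km per enzyme. Peptide substrate, enzyme and compound were premixed in HEPES pH 7.5 buffer with MgCl2, EGTA, Brij 35 and DTT.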

MERTK = target: T2, MERTK (Homo sapiens, UniProt Q12866); assay: TR-FRET kinase activity assay, MERTK; assay type: biochemical; details: for IC50: TR-FRET activity assay, ATP at Km, 60 minutes, read-out: Mer IC50; for Mer/Flt3 ratio (FLT3 IC50/Mer IC50): ratio calculated as FLT3 IC50/Mer IC50
T2 sequence (Q12866 21-999): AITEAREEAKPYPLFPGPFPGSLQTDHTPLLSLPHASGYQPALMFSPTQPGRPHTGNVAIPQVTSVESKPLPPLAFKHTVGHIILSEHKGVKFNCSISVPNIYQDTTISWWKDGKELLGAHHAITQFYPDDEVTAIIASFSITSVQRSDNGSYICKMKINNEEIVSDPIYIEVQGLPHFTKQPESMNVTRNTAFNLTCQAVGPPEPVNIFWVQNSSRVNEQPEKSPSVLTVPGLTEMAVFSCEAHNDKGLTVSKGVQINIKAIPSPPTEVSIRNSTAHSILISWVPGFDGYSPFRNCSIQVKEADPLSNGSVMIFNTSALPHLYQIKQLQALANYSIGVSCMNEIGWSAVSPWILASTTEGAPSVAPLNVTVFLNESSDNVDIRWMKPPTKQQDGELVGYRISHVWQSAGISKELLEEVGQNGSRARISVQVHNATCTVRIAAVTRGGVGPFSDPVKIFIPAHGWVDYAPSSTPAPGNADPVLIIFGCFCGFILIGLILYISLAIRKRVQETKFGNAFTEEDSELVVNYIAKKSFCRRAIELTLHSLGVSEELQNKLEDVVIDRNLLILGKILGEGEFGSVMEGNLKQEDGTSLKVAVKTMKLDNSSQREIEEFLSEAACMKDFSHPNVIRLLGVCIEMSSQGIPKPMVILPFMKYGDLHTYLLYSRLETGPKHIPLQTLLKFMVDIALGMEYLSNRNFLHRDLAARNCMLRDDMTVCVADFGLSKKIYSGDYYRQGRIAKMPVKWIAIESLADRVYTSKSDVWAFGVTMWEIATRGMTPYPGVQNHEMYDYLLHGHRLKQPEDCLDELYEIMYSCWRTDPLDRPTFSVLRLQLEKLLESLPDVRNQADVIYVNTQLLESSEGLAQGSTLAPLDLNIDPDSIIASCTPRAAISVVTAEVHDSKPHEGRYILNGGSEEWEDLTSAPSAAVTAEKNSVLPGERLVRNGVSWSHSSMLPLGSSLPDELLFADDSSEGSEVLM
Method in brief: as §1

Compound	IC50 (FLT3) [nM]	IC50 (MERTK) [nM]	Mer/Flt3 ratio (FLT3 IC50/Mer IC50) (MERTK)
CCC1(Nc2ncc3c(OC4CCOCC4)ncc([C@H]4CC[C@H](O)CC4)c3n2)CC1 [Compound 339]	1000 to 10000	≤ 100	+++ (a ratio of >100)
CNC(=O)N[C@H]1CC[C@H](c2cnc(OC3CCOCC3)c3cnc(N[C@@H](C)COC)nc32)CC1 [Compound 340]	1000 to 10000	≤ 100	+++ (a ratio of >100)
CNS(=O)(=O)N1CCC(c2cnc(OC3CCOCC3)c3cnc(N[C@@H](C)COC)nc23)CC1 [Compound 341]	1000 to 10000	≤ 100	+++ (a ratio of >100)
COC[C@H](C)Nc1ncc2c(OC3CCOCC3)ncc(-c3ccnnc3)c2n1 [Compound 342]	1000 to 10000	1000 to 10000	+ (a ratio of >2.0 and <10)
COC[C@H](C)Nc1ncc2c(OC3C[C@H]4CC[C@@H](C3)N4C)ncc([C@H]3CC[C@H](O)CC3)c2n1 (stereo partly drawn) [Compound 343]	1000 to 10000	≤ 100	+++ (a ratio of >100)
COC[C@H](C)Nc1ncc2c(OC3CCN(c4ncccn4)CC3)ncc([C@H]3CC[C@H](O)CC3)c2n1 [Compound 344]	1000 to 10000	≤ 100	+++ (a ratio of >100)
CNC(=O)N1CCC(c2cnc(OC3CCOCC3)c3cnc(N[C@@H](C)COC)nc23)CC1 [Compound 345]	1000 to 10000	100 to 1000	++ (a ratio of between 10 and 100)
COC[C@H](C)Nc1ncc2c(OC3CCOCC3)ncc(C3CCCCN3)c2n1 (stereo partly drawn) [Compound 346]	1000 to 10000	100 to 1000	+ (a ratio of >2.0 and <10)
COC[C@H](C)Nc1ncc2c(C3CC3)ncc([C@H]3CC[C@H](O)CC3)c2n1 [Compound 349]	1000 to 10000	≤ 100	+++ (a ratio of >100)
COC[C@H](C)Nc1ncc2c(OC3CCOCC3)ncc(C3CCCCN3C)c2n1 (stereo partly drawn) [Compound 350]	1000 to 10000	100 to 1000	++ (a ratio of between 10 and 100)
COC[C@@H](C)Nc1ncc2c(OC3CC(O)C3)ncc([C@H]3CC[C@H](O)CC3)c2n1 (stereo partly drawn) [Compound 351]	1000 to 10000	≤ 100	+++ (a ratio of >100)

Now from value to molecule:

IC50 (FLT3) [nM]	IC50 (MERTK) [nM]	Mer/Flt3 ratio (FLT3 IC50/Mer IC50) (MERTK)	Compound
1000 to 10000	100 to 1000	++ (a ratio of between 10 and 100)	COC[C@H](C)Nc1ncc2c(OC3CCOCC3)ncc(-c3cccc(C(N)=O)c3)c2n1 [Compound 325]
≤ 100	100 to 1000	NS (a ratio of ≤2.0)	COC[C@H](C)Nc1ncc2c(OC3CCOCC3)ncc([C@H]3CCCNC3)c2n1 [Compound 326]
1000 to 10000	100 to 1000	++ (a ratio of between 10 and 100)	COC[C@H](C)Nc1ncc2c(OC3CCOCC3)ncc([C@@H]3CCCNC3)c2n1 [Compound 327]
1000 to 10000	100 to 1000	++ (a ratio of between 10 and 100)	COC[C@H](C)Nc1ncc2c(OC3CCOCC3)ncc(-c3cccc(S(N)(=O)=O)c3)c2n1 [Compound 328]
1000 to 10000	≤ 100	+++ (a ratio of >100)	COC[C@H](C)Nc1ncc2c(OC3CCOCC3)ncc([C@H]3CC[C@@](O)(C(F)(F)F)CC3)c2n1 [Compound 329]
1000 to 10000	100 to 1000	++ (a ratio of between 10 and 100)	COC[C@H](C)Nc1ncc2c(OC3CCOCC3)ncc([C@H]3CC[C@](O)(C(F)(F)F)CC3)c2n1 [Compound 330]
≤ 100	≤ 100	+ (a ratio of >2.0 and <10)	N#Cc1ccc(Nc2ncc3c(OC4CCNCC4)ncc([C@H]4CC[C@H](O)CC4)c3n2)cc1 [Compound 331]
1000 to 10000	100 to 1000	+ (a ratio of >2.0 and <10)	COC[C@H](C)Nc1ncc2c(OC3CCOCC3)ncc([C@H]3CCCN(C)C3)c2n1 [Compound 332]
1000 to 10000	1000 to 10000	+ (a ratio of >2.0 and <10)	COC[C@H](C)Nc1ncc2c(OC3CCOCC3)ncc([C@@H]3CCCN(C)C3)c2n1 [Compound 333]
1000 to 10000	≤ 100	++ (a ratio of between 10 and 100)	COC[C@H](C)Nc1ncc2c(OC3CCOCC3)ncc(-c3cnn([C@H]4CCN(C)C4)c3)c2n1 [Compound 334]
1000 to 10000	≤ 100	+++ (a ratio of >100)	COC[C@H](C)Nc1ncc2c(OC3CCOCC3)ncc(-c3ccc(CO)cc3)c2n1 [Compound 335]
100 to 1000	≤ 100	++ (a ratio of between 10 and 100)	O[C@H]1CC[C@H](c2cnc(OC3CCOCC3)c3cnc(N[C@H]4CCC(F)(F)C4)nc32)CC1 [Compound 336]
1000 to 10000	≤ 100	+++ (a ratio of >100)	COC[C@H](C)Nc1ncc2c(OC3CCOCC3)ncc(-c3ccc(N)nc3)c2n1 [Compound 337]
1000 to 10000	≤ 100	+++ (a ratio of >100)	C[C@H](CC(F)(F)F)Nc1ncc2c(OC3CCOCC3)ncc([C@H]3CC[C@H](O)CC3)c2n1 [Compound 338]
100 to 1000	100 to 1000	+ (a ratio of >2.0 and <10)	COC[C@H](C)Nc1ncc2c(OC3CCOCC3)ncc(-c3cn[nH]c3)c2n1 [Compound 347]
